As a reminder, the IC50 is the concentration that gives 50% inhibition.

Results on 26 molecules are retold here after patent publication US8440830B2, “Tetrahydro-fused pyridines as histone deacetylase inhibitors” (4SC AG, priority 2007, dated 2013).

This assay concerns A549 NSCLC cells. Nature of the assay: Cellular cytotoxicity assay (Alamar Blue), A549. It counts as cell-based. The settings on record: Homo sapiens, 72 h, upper end given as ≧100, read-out: IC50 (μM), cytotoxicity towards A549 NSCLC cells. How it is done:
The anti-proliferative activity of the histone deacetylase inhibitory compounds as described herein, is evaluated using the following cell lines: HeLa and HeLa-KB (cervical carcinoma), H460 (non small cell lung cancer), A549 (non-small cell lung cancer), MCF7 (breast carcinoma), MCF10A (normal, non tumorigenic breast epithelial), MDA-MB468 (breast carcinoma), MDA-MB435 (breast carcinoma), MDA-MB231 (breast carcinoma), SKBR-3 (breast carcinoma), SKOV-3 (ovarial carcinoma), A-2780 (ovarial carcinoma), RKO (colon carcinoma), HCT-15 (colon carcinoma), HCT-116 (colon carcinoma), PC3 (prostate carcinoma), BPH1 (benign prostate hyperplasia), AsPC1 (pancreatic carcinoma), Ca127 (tongue carcinoma), A-431 (vulva carcinoma), Hec1A (endometrial carcinoma), Saos-2 (osteosarcoma), U87MG (glioblastoma), WM266-4 (melanoma), K562 (chronic myeloid leukemia), EOL1 (acute hypereosinophilic myeloid leukemia), CCRF-CEM and CCRF-CEM VCR1000 (acute lymphoblastic leukemia sensitive and resistant towards Vincristine). For quantification of cellular proliferation/living cells the Alamar Blue (Resazurin) cell viability assay is applied (O'Brien et al. Eur J Biochem 267, 5421-5426, 2000). In this assay Resazurin is reduced to the fluorescent resorufine by cellular dehydrogenase activity, correlating with viable, proliferating cells. The examples are dissolved as 20 mM solutions in dimethylsulfoxide (DMSO) and subsequently diluted in semi-logarithmic steps. Cell lines are seeded at respective density into 96 well flat bottom plates in a volume of 200 μl per well. 24 h after seeding 1 μl each of the compound dilutions are added into each well of the 96 well plate. Each compound dilution is tested as quadruplicates. Wells containing untreated control cells are filled with 200 μl DMEM medium containing 0.5% v:v DMSO. The cells are then incubated with the compounds for 72 h at 37° C. in a humidified atmosphere containing 5% carbon dioxide. To determine the viability of the cells, 20 μl of a Resazurin solution (Sigma; 90 mg/l) are added. After 4 h incubation at 37° C. the fluorescence is measured at an extinction of λ=544 nm and an emission of λ=590 nm. For the calculation of the cell viability the emission value from untreated cells is set as 100% viability and the emission rates of treated cells are set in relation to the values of untreated cells. Viabilities are expressed as % values. The corresponding IC50 values of the compounds for cytotoxic activity are determined from the concentration-effect curves by means of non-linear regression.
(In general: Resazurin is reduced to fluorescent resorufin, in cell work by metabolically active cells.)

A value given as a limit tells only on which side of the number the result lay.

In the case of `CCN(C(=O)N1CCc2nc(C(=O)Nc3ccccc3N)sc2C1)C(C)C` [Example 21, N^2-(2-aminophenyl)-N^5-ethyl-N^5-isopropyl-6,7-dihydro[1,3]thiazolo[5,4-c]-pyridine-2,5(4H)-dicarboxamide], the 50% inhibitory concentration (IC50) is no less than 0.2 µM.

In the case of `COc1ccc(NC(=O)C(=O)N2CCc3nc(C(=O)Nc4cc(OC)ccc4N)sc3C2)cc1` [Example 78, N-(2-amino-5-methoxyphenyl)-5-{[(4-methoxyphenyl)amino](oxo)acetyl}-4,5,6,7-tetrahydro[1,3]thiazolo[5,4-c]pyridine-2-carboxamide], the 50% inhibitory concentration (IC50) is no less than 0.2 µM.

Take `COc1ccc(N)c(NC(=O)c2nc3c(s2)CN(C(=C[N+](=O)[O-])Nc2ccc(N(C)C)cc2)CC3)c1` [Example 144, N-(2-amino-5-methoxyphenyl)-5-[1-{[4-(dimethylamino)phenyl]amino}-2-nitrovinyl]-4,5,6,7-tetrahydro[1,3]thiazolo[5,4-c]pyridine-2-carboxamide]: the half-maximal inhibitory concentration (IC50) is no less than 0.2 µM.

Take `CC(C)c1ccc(N)c(NC(=O)c2nc3c(s2)CN(C(=S)Nc2ccccc2)CC3)c1` [Example 109, N-(2-amino-5-isopropylphenyl)-5-(anilinocarbonothioyl)-4,5,6,7-tetrahydro[1,3]thiazolo[5,4-c]pyridine-2-carboxamide]: the IC50 was no less than 0.2 µM.

On to `Nc1ccccc1NC(=O)c1nc2c(s1)CN(C(=O)Nc1ccccc1OC(F)F)CC2` [Example 10, N^2-(2-aminophenyl)-N5-[2-(difluoromethoxy)phenyl]-6,7-dihydro[1,3]thiazolo[5,4-c]pyridine-2,5(4H)-dicarboxamide], for which the half-maximal inhibitory concentration (IC50) is no less than 0.2 µM.

`COC(=O)c1sccc1S(=O)(=O)N1CCc2nc(C(=O)Nc3ccccc3N)sc2C1` [Example 158, Methyl 3-({2-[(2-aminophenyl)carbamoyl]-6,7-dihydro[1,3]thiazolo[5,4-c]pyridin-5(4H)-yl}sulfonyl)thiophene-2-carboxylate]: the IC50 is no less than 0.2 µM.

For the molecule `Nc1ccccc1NC(=O)c1nc2c(s1)CN(C(=O)C(=O)NC1CCC(c3cccnc3)CC1)CC2` (centres unmarked) [Example 69, N-(2-aminophenyl)-5-{oxo[(4-pyridin-3-ylcyclohexyl)amino]acetyl}-4,5,6,7-tetrahydro[1,3]thiazolo[5,4-c]pyridine-2-carboxamide], the concentration for half-maximal inhibition (IC50) is no less than 0.2 µM.

Regarding `Nc1ccccc1NC(=O)c1nc2c(s1)CN(C(=S)Nc1cccnc1)CC2` [Example 103, N-(2-aminophenyl)-5-[(pyridin-3-ylamino)carbonothioyl]-4,5,6,7-tetrahydro[1,3]thiazolo[5,4-c]pyridine-2-carboxamide], the half-maximal inhibitory concentration (IC50) was no less than 0.2 µM.

As for `COc1ccc(N)c(NC(=O)c2nc3c(s2)CN(C(=C[N+](=O)[O-])Nc2ccc(F)cc2)CC3)c1` [Example 149, N-(2-amino-5-methoxyphenyl)-5-{1-[(4-fluorophenyl)amino]-2-nitrovinyl}-4,5,6,7-tetrahydro[1,3]thiazolo[5,4-c]pyridine-2-carboxamide], the IC50 is no less than 0.2 µM.

Turning to `Cc1ccc(S(=O)(=O)N2CCc3nc(C(=O)Nc4cc(C(C)C)ccc4N)sc3C2)cc1` [Example 170, N-(2-amino-5-isopropylphenyl)-5-[(4-methylphenyl)sulfonyl]-4,5,6,7-tetrahydro[1,3]thiazolo[5,4-c]pyridine-2-carboxamide], the half-inhibitory concentration (IC50) was no less than 0.2 µM.

Regarding `CCCOC(=O)c1ccc(OC(=O)N2CCc3nc(C(=O)Nc4ccccc4N)sc3C2)cc1` [Example 184, 4-(propoxycarbonyl)phenyl 2-[(2-aminophenyl)carbamoyl]-6,7-dihydro[1,3]thiazolo[5,4-c]pyridine-5(4H)-carboxylate], the IC50 is no less than 0.2 µM.

On to `COc1ccc(N)c(NC(=O)c2nc3c(s2)CN(C(=O)Nc2ccc(F)cc2)CC3)c1` [Example 51, N^2-(2-amino-5-methoxyphenyl)-N^5-(4-fluorophenyl)-6,7-dihydro[1,3]thiazolo[5,4-c]pyridine-2,5(4H)-dicarboxamide], for which the IC50 is no less than 0.2 µM.

With `Nc1ccccc1NC(=O)c1nc2c(s1)CN(C(=O)C(=O)Nc1ccc3c(c1)OCO3)CC2` [Example 74, N-(2-aminophenyl)-5-[(1,3-benzodioxol-5-ylamino)(oxo)acetyl]-4,5,6,7-tetrahydro[1,3]thiazolo[5,4-c]pyridine-2-carboxamide], the IC50 was no less than 0.2 µM.

`CC(C)c1ccc(N)c(NC(=O)c2nc3c(s2)CN(C(=C[N+](=O)[O-])Nc2ccc(N(C)C)cc2)CC3)c1` [Example 147, N-(2-amino-5-isopropylphenyl)-5-[1-{[4-(dimethylamino)phenyl]amino}-2-nitrovinyl]-4,5,6,7-tetrahydro[1,3]thiazolo[5,4-c]pyridine-2-carboxamide]: the IC50 was no less than 0.2 µM.

Take `Nc1ccccc1NC(=O)c1nc2c(s1)CN(S(=O)(=O)c1ccc(OC(F)(F)F)cc1)CC2` [Example 168, N-(2-aminophenyl)-5-{[4-(trifluoromethoxy)phenyl]sulfonyl}-4,5,6,7-tetrahydro[1,3]thiazolo[5,4-c]pyridine-2-carboxamide]: the IC50 is no less than 0.2 µM.

As to `Nc1ccccc1NC(=O)c1nc2c(s1)CN(C(=O)c1ccc3ccccc3c1)CC2` [Example 95, N-(2-aminophenyl)-5-(2-naphthoyl)-4,5,6,7-tetrahydro[1,3]thiazolo[5,4-c]-pyridine-2-carboxamide], the IC50 is no less than 0.2 µM.

For the molecule `COC(=O)c1ccc(NC(=O)N2CCc3nc(C(=O)Nc4ccccc4N)sc3C2)cc1` [Example 5, Methyl 4-[({2-[(2-aminophenyl)carbamoyl]-6,7-dihydro[1,3]thiazolo[5,4-c]pyridin-5(4H)-yl}carbonyl)amino]benzoate], the IC50 was no less than 0.2 µM.

In the case of `COc1ccc(NC(=O)N2CCc3nc(C(=O)Nc4cc(OC)ccc4N)sc3C2)cc1` [Example 43, N^2-(2-amino-5-methoxyphenyl)-N^5-(4-methoxyphenyl)-6,7-dihydro[1,3]thiazolo[5,4-c]pyridine-2,5(4H)-dicarboxamide], the IC50 was no less than 0.2 µM.

For `COc1ccc(N)c(NC(=O)c2nc3c(s2)CN(C(C)=Nc2ccc(OC)c(OC)c2)CC3)c1` [Example 131, N-(2-amino-5-methoxyphenyl)-5-[N-(3,4-dimethoxyphenyl)ethanimidoyl]-4,5,6,7-tetrahydro[1,3]thiazolo[5,4-c]pyridine-2-carboxamide], the IC50 was no less than 0.2 µM.

Regarding `Nc1ccccc1NC(=O)c1nc2c(s1)CN(C(=O)NC1CCNCC1)CC2` [Example 42, N^2-(2-aminophenyl)-N^5-piperidin-4-yl-6,7-dihydro[1,3]thiazolo[5,4-c]pyridine-2,5(4H)-dicarboxamide], the IC50 was no less than 0.2 µM.

Consider `Nc1ccccc1NC(=O)c1nc2c(s1)CN(C(=O)Oc1ccc3ccccc3c1)CC2` [Example 185, 2-naphthyl 2-[(2-aminophenyl)carbamoyl]-6,7-dihydro[1,3]thiazolo[5,4-c]-pyridine-5(4H)-carboxylate], for which the IC50 is no less than 0.2 µM.

Consider `COc1ccc(NC(=O)N2CCc3nc(C(=O)Nc4ccccc4N)sc3C2)cn1` [Example 38, N^2-(2-aminophenyl)-N^5-(6-methoxypyridin-3-yl)-6,7-dihydro[1,3]thiazolo[5,4-c]pyridine-2,5(4H)-dicarboxamide], for which the half-maximal inhibitory concentration (IC50) was no less than 0.2 µM.

On to `Nc1ccccc1NC(=O)c1nc2c(s1)CN(C(=O)C(=O)Nc1cnc3ccccc3c1)CC2` [Example 77, N-(2-aminophenyl)-5-[oxo(quinolin-3-ylamino)acetyl]-4,5,6,7-tetrahydro-[1,3]thiazolo[5,4-c]pyridine-2-carboxamide], for which the IC50 is no less than 0.2 µM.

As for `Nc1ccccc1NC(=O)c1nc2c(s1)CN(C(=O)C(=O)Nc1ccc(OC(F)(F)F)cc1)CC2` [Example 72, N-(2-aminophenyl)-5-(oxo{[4-(trifluoromethoxy)phenyl]amino}acetyl)-4,5,6,7-tetrahydro[1,3]thiazolo[5,4-c]pyridine-2-carboxamide], the IC50 was no less than 0.2 µM.

Regarding `CC(=O)Nc1ccc(S(=O)(=O)N2CCc3nc(C(=O)Nc4ccccc4N)sc3C2)cc1` [Example 155, 5-[(4-acetamidophenyl)sulfonyl]-N-(2-aminophenyl)-4,5,6,7-tetrahydro[1,3]thiazolo[5,4-c]pyridine-2-carboxamide], the IC50 is no less than 0.2 µM.

Regarding `Nc1ccccc1NC(=O)c1nc2c(s1)CN(S(=O)(=O)c1cccc(OC(F)F)c1)CC2` [Example 165, N-(2-aminophenyl)-5-{[3-(difluoromethoxy)phenyl]sulfonyl}-4,5,6,7-tetrahydro[1,3]thiazolo[5,4-c]pyridine-2-carboxamide], the IC50 is no less than 0.2 µM.
